{
  "source": "patent EP1060190B1",
  "about": "“NEW SALT FORMS OF (2E)- 5-AMINO-5- METHYLHEX-2- ENOIC ACID N-METHYL-N-((1R)-1-(N- METHYL-N-((1R)-1-(METHYLCARBAMOYL)-2- PHENYLETHYL)CARBAMOYL)-2- (2-NAPHTYL)ETHYL)AMIDE” (NOVO NORDISK A/S, priority 1998, dated 1999)",
  "experiment": "Exposure of the anhydrous salt form to high humidity (solid form stability)",
  "type": "physicochemical",
  "settings": "e.g. 10 weeks at 98% RH",
  "note": "Where a name gives a salt, the structure may show the parent alone.",
  "data": [
    {"smiles": "CNC(=O)[C@@H](Cc1ccccc1)N(C)C(=O)[C@@H](Cc1ccc2ccccc2c1)N(C)C(=O)/C=C/CC(C)(C)N", "note": "[compound I,hfum, compound I,hemi fumarate]", "values": [
      {"measurement": "Exposure of the anhydrous form to high humidity", "result": "produced the hydrous form"}
    ]}
  ]
}
